Where a SMILES comes first, the peptide text is derived from it. Bridges are numbered along the chain shown (N, C = ends). The star is where a group is joined. DOTA = O=C(O)CN1CCN(CC(=O)O)CCN(CC(=O)*)CCN(CC(=O)O)CC1; AEEA = NCCOCCOCC(=O)O
Experiments:
[1] = tested on: Staphylococcus aureus induced osteomyelitis (OM) lesions; test: Static PET/CT tracer uptake in S. aureus induced osteomyelitis lesions, juvenile pig model; settings: for Standard uptake values (SUV) in OM lesions: static whole-body PET/CT about 1 h after i.v. tracer injection, day 6-7 after S. aureus S54F9 inoculation
Excerpt: (§1) Fifteen domestic pigs, all clinically healthy, specific pathogen-free Danish Landrace Yorkshire cross-bred female pigs aged 8–9 weeks weighing 18.3–24.5 kg, were purchased from local commercial pig farmers. After at least one week of acclimatization, the pigs fasted over-night. Then they were premedicated with s-ketamine (Pfizer, Ballerup, Denmark) and midazolam (B. Braun Medical, Frederiksberg, Denmark) intramuscularly and anesthetized with propofol (B. Braun Medical, Frederiksberg, Denmark) intravenously. Finally, they were inoculated with a well-characterized porcine strain of S. aureus S54F9 (approximately 10,000 CFU/kg body weight) into the femoral artery of the right hind limb to induce OM in that limb, as described elsewhere. […] The pigs were all treated with 30–45 µg/kg buprenorphine (Indivior, Berkshire, United Kingdom) intramuscularly thrice daily from the time before inoculation and until scanning at day 6 and 7 after inoculation. After scanning, pigs were euthanized with an overdose of pentobarbitone (Scan Vet Animal Health, Fredensborg, Denmark) while still under anesthesia. Humane endpoints were: anorexia for more than 24 h, superficial respiration, the inability to stand up, or signs of systemic infection. […] The environment was characterized by a room temperature of 20 °C, relative humidity of 51–55%, 12 h in light/12 h in dark cycles, an exchange of air at least eight times per hour. Pigs were fasted overnight before anesthesia.
(§2) Osteomyelitis was verified by CT imaging, necropsy, histology, and/or bacterial cultivation.
(§3) The average injected activity was a median of 760 MBq (range 348–848 MBq) of [^68Ga]Ga-DOTA-K-A9, corresponding to ~17–46 MBq/kg and median 475 MBq (range 65–500 MBq) of [^68Ga]Ga-DOTA-GSGK-A11, corresponding to ~3–23 MBq/kg. PET was performed median ~60 min (60–61min) after injection of [^68Ga]Ga-DOTA-K-A9 (pigs 4–6, Table 1) and ~62 min (62–62 min) after injection of [^68Ga]Ga-DOTA-GSGK-A11 (pigs 7–8, Table 1) in the jugular vein.
(§4) Fluoride-18 was produced via the ^18O (p,n) ^18F nuclear reaction using a cyclotron. The target content was passed through a QMA-light Sep-Pak (Waters, Hedehusene, Denmark) to trap F-18. The solution was washed with 10 mL sterile water for injection (10 mL) to remove any residual [^18O]H2O and then dried with an argon stream. [^18F]NaF was set free by eluting the QMA Sep-Pak with 10 mL NaHCO3 and 10–20 mL air into the product vial. The average injected activity was as median 184 MBq (range 165–196 MBq), corresponding to ~8–10 MBq/kg. The PET was performed ~57 min (33–78 min) after injection of [^18F]NaF (pigs 9–13, Table 1).
(§5) The average injected activity was median 117 MBq (range 109–120 MBq), corresponding to ~5–6 MBq/kg.
(§6) The average injected activity was as median 178 MBq (range 126–253 MBq), corresponding to ~8–12 MBq/kg. The PET was performed ~72 min (60–126 min, early scan) and 139 min (118–186 min, late scan) after injection of [^68Ga]Ga-DOTA-Siglec-9 (pigs 1–3 and 12–15, Table 1).
(§7) ^18F were produced at the PET Center Aarhus using either a PETtrace 800 series cyclotron (GE Healthcare, Uppsala, Sweden) or a Cyclone 18/18 cyclotron (IBA, Louvain La Neuve, Belgium). [^18F]FDG was produced by a standard procedure applying a GE Healthcare MX Tracerlab synthesizer, Mx cassettes supplied by Rotem Industries (Arava, Israel), and chemical kits supplied by ABX GmbH (Radeberg, Germany). […] The median injected activity was 125 MBq (range 94–497 MBq), corresponding to ~5–24 MBq/kg. The PET was performed ~61 min (50–76 min) after injection of [^18F]FDG (pigs 1–15, Table 1).
(§8) The pigs were scanned at locations; Aalborg and Aarhus PET Centers. […] They were in propofol anesthesia and mechanically ventilated throughout the scan. Reflexes, pulse, oxygen saturation, and body temperature were monitored.

[2] = as above; settings: pig, in vivo, iv, Standard uptake values (SUV) in OM lesions
Excerpt: as §1, §2, §3, §4, §5, §6, §7, §8

[3] = tested on: S. aureus inoculation abscess / soft tissue infection; test: PET uptake in infected soft tissue (inguinal inoculation abscess, lymph node) of pigs
Excerpt: as §1, §6, §7, §8

[4] = Whole-body PET biodistribution and excretion of tracers in pigs (MIPs); format: in vivo, pig
Excerpt: Reflexes, pulse, oxygen saturation, and body temperature were monitored. […] In the present study, only the whole-body static PET/CT scans are presented.

[5] = tested on: vascular adhesion protein 1, VAP-1; settings: cited from earlier work
Excerpt: The PET tracer [^68Ga]Ga-DOTA-Siglec-9 binds to a protein involved in leukocyte extravasations (vascular adhesion protein 1, VAP-1). Only recently, we have analyzed the dynamic data. […] However, the distribution volume for the uptake of soft tissue infections was elevated, concluding the tracer has a role for soft tissue infections ...

osteomyelitis lesions = settings: pigs; cited from earlier work
Excerpt: We have previously used ^99mTc-label […] ([^99mTc]Tc-DPD) to examine bone remodeling in pigs. […] We, therefore, moved on to use [^18F]NaF in the present study because [^18F]NaF though acting through similar uptake mechanisms as [^99mTc]Tc-DPD, [^18F]NaF is supposed to have a two-fold higher uptake in bones and a better sensitivity for metastatic osteoblastic metastases.

In the case of `CC(C)C[C@@H]1NC(=O)CNC(=O)[C@H](CCCNC(=N)N)NC(=O)[C@H](Cc2c[nH]c3ccccc23)NC(=O)[C@H](CO)NC(=O)[C@H](CC(C)C)NC(=O)[C@H](CO)NC(=O)[C@H](CC(C)C)NC(=O)[C@H](CCCNC(=N)N)NC(=O)[C@H](C)NC(=O)[C@@H](NC(=O)COCCOCCNC(=O)CN2CCN(CC(=O)O)CCN(CC(=O)O)CCN(CC(=O)O)CC2)CSSC[C@@H](C(=O)N2CCC[C@H]2C(=O)N[C@@H](CO)C(=O)N[C@@H](CCCCN)C(N)=O)NC(=O)[C@H](CC(C)C)NC(=O)[C@H]([C@@H](C)O)NC1=O` [[^68Ga]Ga-DOTA-Siglec-9, metal not drawn] ({DOTA-AEEA}-CARLSLSWRGLTLCPSK-NH2; disulfide 1-14; N-terminus and C-terminus assumed), the “Tracer accumulation in porcine OM lesions (in words)” value ([1]; pig, in vivo) is reported as “no tracer activity”, the SUV [2] is reported as 1.3 SUV and the “Uptake in the margin of an inguinal abscess adjacent to the S. aureus inoculation site” value ([3]; pig 12, images acquired 10 to 30 min after tracer injection) is reported as “marked”. For the same molecule, the “Change of activity in the margin of the abscess in the static images” value ([3]; pig, in vivo) was “decreased”, the “Distribution of the tracer in the body outside OM lesions” value ([4]; pig, in vivo) was “accumulated in dorsocaudal parts of both lungs” and the “Distribution volume for the uptake of soft tissue infections” value ([5]; pig, in vivo) was “elevated”. The “Metabolism of the tracer in vivo” value ([5]; pig, in vivo) was “metabolized very quickly”, the “Uptake in OM” value ([5]; pig, in vivo) was “no increased” and the Kinetics of uptake ([5]; pigs, modeled with the rev2TCM (4 k-parameters)) was “reversible kinetics”.
For `[18F-].[Na+]` [[^18F]NaF], the “Standard uptake values (SUV) in OM lesions” value (from here on “Standard uptake values (SUV)”) ([1]; pig 9, 4 lesions) was 9.2–13.6, the “Standard uptake values (SUV)” value ([1]; pig 10, 3 lesions) was 15.2–17 and the “Standard uptake values (SUV)” value ([1]; pig 11, 5 lesions) was 5.7–19.2. The “Standard uptake values (SUV)” value ([1]; pig 12, 1 lesion) was 19.8, the “Standard uptake values (SUV)” value ([1]; pig 13, 2 lesions) was 7.8–17.6 and the “Tracer accumulation in porcine OM lesions (in words)” value ([1]; static PET, K-A9 9 lesions, GSGK-A11 5, NaF 15, ubiquicidin 12, Siglec-9 19 lesions (early and late images)) was “no accumulation”. For the same molecule, the Route of excretion ([4]; pigs, whole-body PET, maximum intensity projections) was “excreted by the kidneys” and the “Distribution of the tracer in the body outside OM lesions” value ([4]; pigs, whole-body PET/CT) was “distributed to the growth zones of the bones”.
In the case of `OC[C@H]1OC(O)[C@H]([18F])[C@@H](O)[C@@H]1O` (stereo partly drawn) [[^18F]FDG, [^18F]-fluorodeoxyglucose], the “Standard uptake values (SUV)” value ([1]; pig 1, 3 lesions) is reported as 4–7.3, the “Standard uptake values (SUV)” value ([1]; pig 2, 4 lesions) is reported as 2.3–5.9 and the “Standard uptake values (SUV)” value ([1]; pig 3, 5 lesions) is reported as 2.9–4.5. The “Standard uptake values (SUV)” value ([1]; pig 4, 2 lesions) was 10.5–16.3, the “Standard uptake values (SUV)” value ([1]; pig 5, 3 lesions) was 3.4–9 and the “Standard uptake values (SUV)” value ([1]; pig 6, 4 lesions) was 4–9.2. For the same molecule, the “Standard uptake values (SUV)” value ([1]; pig 7, 3 lesions) was 3–6.4, the “Standard uptake values (SUV)” value ([1]; pig 8, 2 lesions) was 2.4–8 and the “Standard uptake values (SUV)” value ([1]; pig 9, 4 lesions) was 5.4–5.9. For the same molecule, the “Standard uptake values (SUV)” value ([1]; pig 10, 3 lesions) was 4.4–5.1, the “Standard uptake values (SUV)” value ([1]; pig 11, 5 lesions) was 1–3.9 and the “Standard uptake values (SUV)” value ([1]; pig 12, 1 lesion) was 6.1. The “Standard uptake values (SUV)” value ([1]; pig 13, 2 lesions) was 7.8–10.1, the “Standard uptake values (SUV)” value ([1]; pig 14, 3 lesions) was 4–7.8 and the “Standard uptake values (SUV)” value ([1]; pig 15, 1 lesion) was 3.6. The “Number of OM lesions in which the tracer accumulated distinguishably” value ([1]; static PET ~61 min after injection, pigs 1-15) was 45 of the 45, the “Uptake in hyperplasic medial iliacus lymph node of the infected side compared to the lymph node in the non-infected left hind limb” value ([3]; pig 12) was “increased” and the “Change of activity in the margin of the abscess in the static images” value ([3]; pig 12, static images acquired after 60 min, compared to 10-30 min) was “increased slightly”.
For “^99mTc-label methylene diphosphate [[^99mTc]Tc-DPD]”, the “Tracer uptake in the osteomyelitis lesions” value (osteomyelitis lesions) is given as “did not observe any tracer uptake”.

Reference: article PMC7570567, “Attempts to Target Staphylococcus aureus Induced Osteomyelitis Bone Lesions in a Juvenile Pig Model by Using Radiotracers” (Molecules, 2020)
